Counter-ions that a name gives are not always drawn.
target: T1, Dipeptidyl-Peptidase IV (DPP IV) (Sus scrofa, UniProt P22411); experiment: Inhibition of dipeptidyl-peptidase IV in pig kidney (Gly-Pro-pNA cleavage, absorbance at 405 nm); type: biochemical; details: pig kidney membrane preparation; substrate Gly-Pro-pNA; 60 min at 37° C.; geometric mean of the IC50s
T1 construct: using 10 μl of the pig kidney preparation; from tissue; host or cells: pig kidney membrane fraction, solubilised with n-octyl-β-glucopyranoside
T1 sequence (P22411 whole entry): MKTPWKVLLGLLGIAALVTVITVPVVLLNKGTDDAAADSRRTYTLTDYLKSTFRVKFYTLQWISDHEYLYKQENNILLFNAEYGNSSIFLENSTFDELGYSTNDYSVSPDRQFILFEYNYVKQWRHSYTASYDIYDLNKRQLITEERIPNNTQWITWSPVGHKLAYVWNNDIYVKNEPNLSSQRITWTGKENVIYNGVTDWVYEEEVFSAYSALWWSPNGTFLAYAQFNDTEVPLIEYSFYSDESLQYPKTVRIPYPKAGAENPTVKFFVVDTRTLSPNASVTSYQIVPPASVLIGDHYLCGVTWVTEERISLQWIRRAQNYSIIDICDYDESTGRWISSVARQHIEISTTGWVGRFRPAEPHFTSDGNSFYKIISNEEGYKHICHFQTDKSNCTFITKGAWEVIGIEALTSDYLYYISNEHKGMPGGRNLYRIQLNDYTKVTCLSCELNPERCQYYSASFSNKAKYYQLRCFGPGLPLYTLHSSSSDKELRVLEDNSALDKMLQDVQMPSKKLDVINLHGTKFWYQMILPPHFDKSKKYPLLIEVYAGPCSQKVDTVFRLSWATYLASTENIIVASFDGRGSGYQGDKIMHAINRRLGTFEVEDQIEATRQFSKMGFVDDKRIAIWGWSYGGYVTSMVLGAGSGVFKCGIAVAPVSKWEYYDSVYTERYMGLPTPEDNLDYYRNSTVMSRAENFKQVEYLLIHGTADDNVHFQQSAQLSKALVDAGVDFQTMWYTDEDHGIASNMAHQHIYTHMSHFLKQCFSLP
Description: Inhibition of Dipeptidyl-Peptidase IV in Pig Kidney
Preparation of the Membrane Fraction of Pig Kidney
Pig kidney tissue (large white pig, 2 to 3 months' old) was homogenised (5 g of tissue in 15 ml of Tris buffer (114 mM, pH 7.8-8)) and then centrifuged at 150000×g for 30 min. at 4° C. The pellet was taken up in 15 ml of buffer and re-centrifuged at 150000×g for 30 min. at 4° C. With stirring, the resulting pellet was dissolved in 15 ml of buffer with 60 mM n-octyl-β-glucopyranoside for 30 min. at ambient temperature. After centrifugation at 150000×g for 30 min. at 4° C., the supernatant was dialysed (MWCO 12-14000) against 114 mM Tris pH 7.8-8, and then divided into aliquots at —80° C.
Measurement of Dipetidyl Peptidase IV (DPP IV) Activity
The enzymatic activity is measured by cleavage of a chromogenic substrate, glycyl-prolyl-p-nitroanilide (Gly-Pro-pNA), giving Gly-Pro and pNA (p-nitroaniline); the latter is detected by absorbance at 405 nm. The activity is measured in the absence (control) or in the presence of 10 μl of the inhibitors, using 10 μl of the pig kidney preparation (0.81 mU, 1U=1 μmol of pNA product/min. at 37° C.). Incubation is started by adding the substrate (250 μl), dissolved in Tris buffer (114 mM) pH 7.8-8, over a period of 60 min. at 37° C. […] The results were expressed as a percentage of the control, and the IC50 values (effective dose for 50% inhibition of the control activity) were determined using non-linear analysis between 0 and 100%, (GraphPad Prism version 4.01 for Windows). Each measurement was carried out in quadruplicate and each IC50 determination was carried out from 1 to 5 times.
The results obtained (geometric mean of the IC50s) for the compounds representing the invention are compiled in the following Table: […]

| SMILES | IC50 |
| --- | --- |
| N#C[C@@H]1CCCN1C(=O)CNC1(CO)CCC2(CCCCC2)CC1 [Example 5, (2S)-1-({[3-(Hydroxymethyl)spiro[5.5]undec-3-yl]amino}acetyl)-2-pyrrolidinecarbonitrile] | 0.0685 µM |
| N#C[C@@H]1CCCN1C(=O)CNC1CCC2(CC1)CCC1(CCCCC1)CC2 [Example 8, (2S)-1-[(Dispiro[5.2.5.2]hexadec-3-ylamino)acetyl]-2-pyrrolidine-carbonitrile] | 0.023 µM |
| N#C[C@@H]1CSCN1C(=O)CNC1CCC2(CCCCC2)CC1 [Example 18, (4R)-3-[(Spiro[5.5]undec-3-yl-amino)acetyl]-1,3-thiazolidine-4-carbonitrile trifluoroacetate] | 0.0035 µM |
| N#C[C@@H]1CCCN1C(=O)CNC1CCC2(CCSCC2)CC1 [Example 23, (2S)-1-[(3-Thiaspiro[5.5]undec-9-ylamino)acetyl]-2-pyrrolidine-carbonitrile hydrochloride] | 0.027 µM |
| N#C[C@@H]1C[C@H](F)CN1C(=O)CNC1(CO)CCC2(CCOCC2)CC1 [Example 29, (2S,4S)4-Fluoro-1-({[9-(hydroxymethyl)-3-oxaspiro[5.5]undec-9-yl]-amino}acetyl)-2-pyrrolidinecarbonitrile] | 0.0316 µM |

Further compounds by falling IC50, results first:

| IC50 | SMILES |
| --- | --- |
| 0.171 µM | N#C[C@@H]1CCCN1C(=O)CNC1CCC2(CC1)CC2 [Example 28, (2S)-1-[(Spiro[2.5]oct-6-ylamino)acetyl]-2-pyrrolidinecarbonitrile] |
| 0.0761 µM | N#C[C@@H]1CCCN1C(=O)CNC1(CO)CCC2(CCOCC2)CC1 [Example 1, (2S)-1-({[9-(Hydroxymethyl)-3-oxaspiro[5.5]undec-9-yl]amino}-acetyl)-2-pyrrolidinecarbonitrile] |
| 0.0731 µM | N#C[C@@H]1CCCN1C(=O)CNC1CCC2(CCNCC2)CC1 [Example 20, (2S)-1-[(3-Azaspiro[5.5]undec-9-ylamino)acetyl]-2-pyrrolidine-carbonitrile bis(trifluoroacetate)] |
| 0.0436 µM | N#C[C@@H]1CCCN1C(=O)CNC1(CO)CC2(CCCC2)C1 [Example 17, (2S)-1-({[2-(Hydroxymethyl)spiro[3.4]oct-2-yl]amino}acetyl)-2-pyrrolidinecarbonitrile hydrochloride] |
| 0.0272 µM | N#C[C@@H]1CCCN1C(=O)CNC1CCC2(CCCCCCC2)CC1 [Example 6, (2S)-1-[(Spiro[5.7]tridec-3-ylamino)acetyl]-2-pyrrolidinecarbonitrile hydrochloride] |
| 0.0205 µM | N#C[C@@H]1CC(F)(F)CN1C(=O)CNC1(CO)CCC2(CCOCC2)CC1 [Example 30, (2S)-4,4-Difluoro-1-({[9-(hydroxymethyl)-3-oxaspiro[5.5]undec-9-yl]amino}acetyl)-2-pyrrolidinecarbonitrile] |

Reference: patent US7439263B2, “Pyrrolidine and thiazolidine compounds” (Les Laboratoires Servier, priority 2004, dated 2008)
